Each structure is given as a SMILES string. “Also recorded” adds a separate entry of the source.

A word on the IC50: it is the concentration needed to halve the response being measured. Low readings indicate greater potency, high ones weaker potency.

In data set [1] the test system is light-induced functional or morphological changes. As to the kind of experiment: Light damage paradigms used by the present inventors. The format is in vivo.
For data set [2], the system named is mouse closed head injury model. The conditions noted are these: 1 mg/kg; cited from earlier work.
The next data set has as its target T1, MAO-B (Rattus norvegicus, UniProt P19643).
T1 construct: of the invention in rat brain mitochondria; from tissue; host or cells: rat brain, crude mitochondrial fraction (male Wistar rats)
T1 sequence (P19643 1-520): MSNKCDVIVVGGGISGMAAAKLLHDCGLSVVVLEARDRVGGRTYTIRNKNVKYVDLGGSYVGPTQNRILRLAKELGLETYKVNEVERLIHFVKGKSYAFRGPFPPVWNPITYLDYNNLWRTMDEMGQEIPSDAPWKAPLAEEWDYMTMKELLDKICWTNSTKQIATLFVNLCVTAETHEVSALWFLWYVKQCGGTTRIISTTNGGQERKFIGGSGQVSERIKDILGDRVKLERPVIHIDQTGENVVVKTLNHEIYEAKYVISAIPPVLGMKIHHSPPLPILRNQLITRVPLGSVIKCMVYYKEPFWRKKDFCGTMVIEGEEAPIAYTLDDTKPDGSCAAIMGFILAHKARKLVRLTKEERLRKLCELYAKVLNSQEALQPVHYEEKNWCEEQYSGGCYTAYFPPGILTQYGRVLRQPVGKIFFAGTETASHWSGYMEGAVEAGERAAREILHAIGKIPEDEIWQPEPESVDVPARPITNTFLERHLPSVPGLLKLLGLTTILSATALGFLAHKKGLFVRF
The data set is described as follows: In vitro MAO-B enzyme activity assay (radioenzymatic, 14C-phenylethylamine) in rat brain mitochondria. It is filed as biochemical. On the procedure:
(§1) In Vitro MAO-A and MAO-B Enzyme Activities Assay
(§2) —Membrane Preparations (Crude Mitochondrial Fraction)
(§3) The crude homogenate was centrifuged at 2220 rpm for 10 minutes at +4° C. and the supernatant recovered. The pellet was homogenized and centrifuged again. The two supernatants were pooled and centrifuged at 9250 rpm for 10 minutes. The pellet was resuspended in fresh buffer and centrifuged at 11250 rpm for 10 minutes at +4° C. The resulting pellet was stored at −80° C.
(§4) —In Vitro Enzyme Activities Assay
(§5) The enzyme activities were assessed with a radioenzymatic assay using the substrates ^14C-serotonin (5-HT) and ^14C-phenylethylamine (PEA) for MAO-A and MAO-B, respectively.
(§6) The mitochondrial pellet (500 μg protein) was resuspended in 0.1 M phosphate buffer (pH 7.4). 500 μl of the suspension were added to a 50 μl solution of the test compound or buffer, and incubated for 30 min at 37° C. (preincubation) then the substrate (50 μl) was added. The incubation was carried out for 30 minutes at 37° C. (^14C-5-HT, 5 μM) or for 10 minutes at 37° C. (^14C-PEA, 0.5 μM).
(§7) After centrifugation, the deaminated metabolites were extracted with 3 ml of diethyl ether (5-HT) or toluene (PEA) and the radioactive organic phase was measured by liquid scintillation spectrometry at 90% efficiency. The amount of neutral and/or acidic metabolites formed as a result of MAO activity was obtained by measuring the radioactivity of the eluate.
(§8) The activity of MAO in the sample, corresponding to a percentage of radioactivity compared with the control activity in the absence of the inhibitor, was expressed as nmoles of substrate transformed/mg protein/min.
(§9) The drug inhibition curves were obtained from at least eight different concentration points, each in duplicate (10^−10 to 10^−5 M).

Another data set has as its target T2, MAO-A (Rattus norvegicus, UniProt P21396).
T2 construct: of the invention in rat brain mitochondria; from tissue; host or cells: rat brain, crude mitochondrial fraction (male Wistar rats)
T2 sequence (P21396 1-526): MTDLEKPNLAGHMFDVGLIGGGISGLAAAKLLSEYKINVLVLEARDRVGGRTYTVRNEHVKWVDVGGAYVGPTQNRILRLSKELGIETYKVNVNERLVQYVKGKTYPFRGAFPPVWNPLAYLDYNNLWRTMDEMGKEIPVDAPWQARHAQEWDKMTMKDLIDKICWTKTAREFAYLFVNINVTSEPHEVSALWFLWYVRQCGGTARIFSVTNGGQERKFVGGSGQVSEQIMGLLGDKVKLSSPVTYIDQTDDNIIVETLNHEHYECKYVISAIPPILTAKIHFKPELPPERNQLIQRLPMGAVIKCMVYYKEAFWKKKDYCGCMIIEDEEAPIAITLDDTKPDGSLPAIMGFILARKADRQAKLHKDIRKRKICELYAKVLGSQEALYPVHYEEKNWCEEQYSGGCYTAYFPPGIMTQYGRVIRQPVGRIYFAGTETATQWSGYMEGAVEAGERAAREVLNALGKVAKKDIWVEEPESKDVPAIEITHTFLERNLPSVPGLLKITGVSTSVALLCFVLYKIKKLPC
As to the kind of experiment: In vitro MAO-A enzyme activity assay (radioenzymatic, 14C-serotonin) in rat brain mitochondria. It is filed as biochemical. On the procedure:
as §1, §2, §3, §4, §5, §6, §7, §8, §9

Data set [3] concerns rat photo-oxidative induced retinopathy model. The data set is described as follows: Rat photo-oxidative induced retinopathy model (blue-light exposure; ERG and retinal morphology). It is filed as in vivo. The settings on record: for Maximum ERG a-wave responses, % of normal: 5 days after 6-hour blue-light exposure. On the procedure: Neuroprotective Activity of MAO Inhibitors in the Rat Photo-Oxidative Induced Retinopathy Model
Prevention of Photo-oxidative injury with Safinamide: The efficacy of Safinamide, a short acting MAO-B inhibitor, to protect retinal cells against the induction of photochemical lesions by blue-light exposure was assessed by measuring light-induced changes in retinal functioning (electroretinogram (ERG)) and evaluating retinal morphology changes.
Subjects. Male Sprague Dawley rats were randomly assigned to drug or vehicle experimental groups. Rats receiving vehicle (N=15) or drug treatment (Safinamide: 5 mg/kg, N=10; 15 mg/kg, N=10; 30 mg/kg, N=10; and 60 mg/kg, N=9) were pre-dosed (IP) at 48, 24 and 0 hours prior to a 6-hour light exposure (spectrally filtered blue light (˜220 fc)) and 24 and 48 hours after light exposure. Control rats were housed in their home cage under normal cyclic light exposure. Control rats were not dosed with either vehicle or drug.
Retinal Function Assessment. The ERG is a non-invasive clinical measurement of the electrical response of the eye to a flash of light. The a-wave and b-wave are two components of the ERG that are diagnostic of retinal function. The a-wave reflects outer retina function and is generated by interactions between photoreceptor and RPE while the b-wave reflects inner retina function, particularly on-bipolar cells. […] Changes in the a-wave amplitude or latency are diagnostic of outer retina pathology. The ERG was recorded after a five day recovery period from dark-adapted anesthetized rats (ketamine-HCl, 75 mg/Kg; xylazine, 6 mg/Kg). The eye's electrical response to a flash of light was elicited by viewing a ganzfeld. ERGs to a series of light flashes increasing in intensity were digitized to analyze temporal characteristics of the waveform and response voltage-log intensity relationship.
Light Microscopic Assessment of Retinal Lesions. Ocular tissues were fixed in a mixture of paraformaldehyde and glutaraldehyde, dehydrated in an ascending ethanol series, embedded in JB-4 plastic resin, and 1 to 1.5-micron thick sections were analyzed using a quantitative computer image analysis system attached to the microscope. Retinal Pigment Epithelium (RPE), Outer Nuclear Layer (ONL) and Inner to Nuclear Layer (INL) thickness as well as the length of inner segments (IS), where mitochondria are located, and outer segments (OS), which contain the light sensitive photopigment, were measured to assess outer retina protection.

Data set [4] has the same test system. The data set is described as above. The format is in vivo. The settings on record: 15 to 60 mg/kg IP, 1-month recovery period.
The mark [5] stands for this setting: 15 and 60 mg/kg, light microscopy.

Consider `Fc1ccc(C(c2ccc(F)cc2)N2CCN(C/C=C/c3ccccc3)CC2)cc1` [flunarizine], for which, in data set [1], the “preventing light-induced functional or morphological changes” value is listed as “moderately effective”.
On to `C#CCN[C@@H]1CCc2ccccc21` [Rasagiline], for which, in data set [2], the cerebral edema reduction is reported as 40-50%.
With `NC(=O)[C@H](CO)NCc1ccc(OCc2cccc(F)c2)cc1` [(S)-2-[4-(3-Fluoro-benzyloxy)-benzylamino]-3-hydroxy-propionamide], the IC50 at MAO-B was 140 nM.
Regarding `Cc1c(C)c2c(c(C)c1O)CC[C@@](C)(CCC[C@H](C)CCC[C@H](C)CCCC(C)C)O2` [α-tocopherol], the “preventing light-induced functional or morphological changes” value in data set [1] is on record as “ineffective”.
With `NC(=O)[C@H](CO)NCc1ccc(OCc2cccc(Cl)c2)cc1` [(S)-2-[4-(3-Chloro-benzyloxy)-benzylamino]-3-hydroxy-propionamide], the figures for the IC50 at MAO-B and against MAO-A were 40 nM and 84000 nM, respectively.
As to `C[C@H](NCc1ccc(OCc2cccc(F)c2)cc1)C(N)=O` [Safinamide, (S)-2-[4-(3-Fluoro-benzyloxy)-benzylamino]-propionamide], the figures for the half-inhibitory concentration (IC50) against MAO-B and against MAO-A were 90 nM and 584000 nM, respectively. Moreover, the “Maximum ERG a-wave responses, % of normal” value in data set [3] (5 mg/kg IP) is given as 52 % of normal; in data set [3] (15 mg/kg IP), “greater than 70 % of normal”; in data set [3] (30 mg/kg IP) it was “greater than 70 % of normal”. Besides, the “Retinal responses (ERG) compared to control rats” value in data set [3] (60 mg/kg IP, 5 days after blue-light exposure) was “not significantly diminished compared to control rats”. Further, in data set [3] (60 mg/kg, light microscopy), the “photoreceptor segment length compared to vehicle-dosed rats” value was “significantly longer”. In addition, the retinal lesions result in data set [3] (60 mg/kg, light microscopy) is on record as “devoid of any significant retinal lesions”; in data set [3] (60 mg/kg, light microscopy, listed as safinamide) it was “devoid of significant retinal lesions”. In addition, the “ERG (retinal function) protection compared to vehicle-dosed rats” value in data set [3] (5-60 mg/kg IP, 5-day recovery period) was “Significant dose-dependent protection of retinal function; also recorded: significant ERG protection”. Further, the “ONL thickness compared to vehicle-dosed rats” value in data set [3] (setting [5]) is on record as “significantly thicker”. Besides, the “RPE thickness compared to vehicle-dosed rats” value in data set [3] (setting [5]) was “thicker RPE compared to vehicle-dosed rats”. Besides, the “reduction in retinal lesions across doses” value in data set [3] (light microscopy, all doses) is given as “Dose-dependent reduction in retinal lesions”. Moreover, the “ERG a- and b-wave function after 1-month recovery” value was “not significantly different from normal; also recorded: normal ERG a- and b-wave function” in data set [4]; “significant and complete retinal function protection” in data set [4] (listed as safinamide).
Regarding `NC(=O)[C@@H](CO)NCc1ccc(OCc2cccc(Cl)c2)cc1` [(R)-2-[4-(3-Chloro-benzyloxy)-benzylamino]-3-hydroxy-propionamide], the IC50 is 110 nM at MAO-B and more than 100000 nM at MAO-A.
`COCCOC(=O)C1=C(C)NC(C)=C(C(=O)OC(C)C)C1c1cccc([N+](=O)[O-])c1` (stereo not drawn) [nimodipine]: the “preventing light-induced functional or morphological changes” value in data set [1] is on record as “no effect”.
For `C[C@H](NCc1ccc(OCc2ccc(F)cc2)cc1)C(N)=O` [(S)-2-[4-(4-Fluoro-benzyloxy)-benzylamino]-propionamide], the values for the concentration for half-maximal inhibition (IC50) on MAO-B and against MAO-A were 60 nM and 93000 nM, respectively.
On to `C[C@@H](C(N)=O)N(C)Cc1ccc(OCc2cccc(Cl)c2)cc1` [(S)-2-{[4-(3-Chloro-benzyloxy)-benzyl]-methyl-amino}-propionamide], for which the IC50 on MAO-B turned out to be 60 nM; against MAO-A, 82000 nM.
For `C[C@H](NCc1ccc(OCc2ccccc2F)cc1)C(N)=O` [(S)-2-[4-(2-Fluoro-benzyloxy)-benzylamino]-propionamide], in that order: 180 nM and 228000 nM.
On to `CN(CC(N)=O)Cc1ccc(OCc2cccc(Cl)c2)cc1` [2-{[4-(3-Chloro-benzyloxy)-benzyl]-methyl-amino}-acetamide], for which the 50% inhibitory concentration (IC50) turned out to be 40 nM on MAO-B and 50000 nM against MAO-A.
For `C[C@H](NCc1ccc(OCC2CCCCC2)cc1)C(N)=O` [(S)-2-(4-Cyclohexylmethoxy-benzylamino)-propionamide], in that order: 30 nM and 301000 nM.
`C[C@H](NCc1ccc(OCc2cccc(Cl)c2)cc1)C(N)=O` [(S)-2-[4-(3-Chloro-benzyloxy)-benzylamino]-propionamide]: the results for the IC50 on MAO-B and on MAO-A were 30 nM and 114000 nM, respectively.

The values are drawn from US20110160308A1, “Use of Monoamine Oxidase Inhibitors to Treat Outer Retina Disorders” (ALCON RESEARCH, LTD., priority 2006, published 2011).
